Values quoted from earlier work in US20040247544A1, “Use of dialkyl sulphones in cosmetic nailcare compositions for promoting growth of the nails” (L'OREAL, priority 2002, published 2004).
Read-outs that look alike come from different tables or passages of the source.

Key:
nails [1] = test system: nails
nails [2] = settings: oral ingestion, aqueous 5% solution, dogs

CS(C)(=O)=O [MSM, methylsulphonylmethane]
strength and brittleness of the nails (nails [1]; aqueous formulation containing 10% MSM and 50% water, applied to the nails with cotton wool, left to act for 15 minutes): strong and less brittle | brittleness of the nails (nails [1]; nail-varnish removers: standard varnish solvent with 5 to 10% of MSM): less brittle | brittleness of the nails (nails [1]; solvent-based (ethyl acetate or amyl acetate) varnish containing 5% by weight of MSM): less brittle | growth of the nails (nails [2]): promotes and stimulates the growth of the nails
